Ends that are not written are not given here. * marks the point of attachment. NorAha = N-(hexanoic acid)-cis-5-norbornene-exo-dicarboximide, O=C1[C@@H]2[C@H](C(=O)N1CCCCCC(=O)*)[C@H]1C=C[C@@H]2C1; fluorescein = 5(6)-carboxyfluorescein
Assays:
HeLa cells [1] = test: Live-cell confocal microscopy (GSGSG-derived and KLA polymers); format: cell-based; settings: 2.5 μM with respect to fluorophore
HeLa cells [2] = test: Cellular uptake in HeLa cells by flow cytometry (GSGSG-derived and KLA polymers); format: cell-based; settings: 2.5 μM with respect to fluorophore, 30 min
Experimental: HeLa cells were plated at a density of 90,000 cells per well of a 24-well plate 18 hrs prior to treatment with the material of interest. Materials dissolved in Dulbecco's Phosphate Buffered Saline (DPBS without Ca2+ or Mg2+; Corning Cellgro, cat. #21-031-CM) at 10× the desired concentration (where concentration is with respect to fluorophore concentration to ensure propare comparison of each molecular transporter) were added to the wells and the plates were incubated for 30 min at 37° C. The medium was then removed and the cells were washed 2× with DPBS and then incubated 3× for five minutes each with heparin (0.5 mg/mL in DPBS; Affymetrix, cat. #16920) to remove any membrane-bound, non-internalized material, and finally rinsed again with DPBS. The cells were then trypsinized (0.25% trypsin in DPBS; Gibco Life Tech., cat. #15090-046) for 10 min, cold medium was added, and the cells were transferred to Eppendorfs. The suspended cells were centrifuged to pellets and then resuspended in a minimal amount of cold DPBS. Flow cytometry data (10,000 events on three separate cultures) was then acquired.

HeLa cells [3] = test: CellTiter-Blue cell viability assay, 72 hrs; settings: for LD50: data fit to the Hill equation
Experimental: The cytotoxicity of materials was assessed using the CellTiter-Blue® assay (Promega, cat #G8081), which measures the metabolic reduction of resazurin to resorufin via fluorescence. For these studies, HeLa cells were plated at a density of 3,500 cells per well of a 96-well plate 18 hrs prior to treatment. Materials dissolved in DPBS at 10× the desired concentrations were added to the wells along with a 10% DMSO positive control. Cells were incubated for 72 hrs at 37° C. Note that concentration for all toxicity measurements is with respect to peptide concentration to ensure that all peptides and polymers are fairly compared with respect to their therapeutic components. […] The medium was removed and 80 μL of fresh medium lacking phenol red was added. To this was added 20 μL of the CellTiter-Blue® reagent and the cells were then incubated for 2 hrs prior to measuring fluorescence using 560 nm excitation and 590 nm emission. The fluorescence measurements were corrected for background fluorescence from the CellTiter-Blue® reagent by subtracting the fluorescence reading of wells treated with the reagent in the absence of cells. Fluorescence values were then referenced as a percentage of the value obtained for the DPBS vehicle control.

[4] = test system: CC(C)C[C@H](NC(=O)[C@H](Cc1c[nH]cn1)NC(=O)[C@H](C)NC(=O)[C@@H]1CCCN1C(=O)[C@H](CCCNC(=N)N)NC(=O)[C@H](CCC(=O)NCCNc1cccc2c(S(=O)(=O)O)cccc12)NC(=O)CN1C(=O)[C@@H]2[C@H](C1=O)[C@H]1C=C[C@@H]2C1)C(=O)N[C@@H](CCCNC(=N)N)C(=O)N[C@@H](CC(=O)O)C(=O)N[C@@H](CO)C(=O)NCC(=O)N[C@@H](CCCCNC(=O)c1ccc(N=Nc2ccc(N(C)C)cc2)cc1)C(=O)NCC(=O)N[C@@H](CO)C(=O)NCC(=O)N[C@@H](CO)C(=O)NCC(N)=O; test: purified protein, by the assay type; settings: other: Michaelis-Menten plot, cleavage by MT1-MMP; pH 7.4
HeLa cells [5] = test: Pharmacological and thermal probes of cellular uptake mechanisms by flow cytometry; format: cell-based; settings: dynasore 80 μM, MβCD 9.5 mM, 4° C.
Experimental: HeLa cells were plated at a density of 90,000 cells per well of a 24-well plate 18 h prior to treatment. Materials dissolved in Dulbecco's Phosphate Buffered Saline (DPBS without Ca^2+ or Mg^2+; Corning Cellgro, cat. #21-031-CM) at 10× the desired concentration were added to the wells, and the plates were incubated for 30 min at 37° C. The medium was then removed, and the cells were washed twice with DPBS and then incubated three times for 5 min with heparin (0.5 mg/mL in DPBS; Affymetrix, cat. #16920), and finally rinsed again with DPBS. The cells were then trypsinized (0.25% trypsin; Gibco Life Tech., cat. #15090-046) for 10 min, cold medium was added, and the cells were transferred to Eppendorfs, centrifuged to pellets and then resuspended in a minimal amount of cold DPBS. Fluorescence activated cell sorting data (10000 events on three separate cultures) was acquired on an Accuri C6 flow cytometer set to default “3 blue 1 red” configuration with standard optics and slow fluidics (14 μL/min). […] The cells were then incubated, prepared and analyzed by flow cytometry as described above. […] Data is reported as the normalized mean fluorescence, which are the mean fluorescence yielded by the material/the mean fluorescence from the vehicle control. […]

HeLa cells [6] = test: Cellular uptake in HeLa cells by flow cytometry (Tat, Arg8, guanidinium materials and controls); format: cell-based; settings: 30 min incubation, DMEM with 10% FBS
chymotrypsin = chymotrypsin (Bos taurus, UniProt P00766); test: Time course of chymotrypsin treatment assayed by RP-HPLC; settings: after 20 minutes of incubation with chymotrypsin (1 μM)
[7] = test system: trypsin, chymotrypsin and Pronase; test: RP-HPLC analysis of CPP proteolysis (intact material after protease treatment); format: in vitro ADME; settings: 1 μM protease, 20 min
Experimental: The extent of proteolytic degradation of the Tat peptide, polymer and particle by trypsin (Gibco Life Tech., cat. #15090-046), a-chymotrypsin (Fisher Scientific, cat. #ICN1522722) and Pronase (Roche, cat. #10165921001) was assessed by comparison of chromatograms in RP-HPLC. I n these experiments, the material at the indicated concentration was incubated with each protease (at 1 μM) for 20 min, and then the enzymes were heat denatured at 65° C. for 15 min, and the solution was immediately injected onto an analytical RP-HPLC. […] Note that the standard curves for the polymer and particle will be biased due to the fact that after cleavage, the polymer backbone and fluorophore should remain intact, and will comprise part of the measured peak area.
Tat-containing materials, at the same concentration used in flow cytometery and confocal microscopy studies described above (2.5 M), were challenged for 20 min with various proteases at high enzyme concentration (˜1 M) prior to determining the extent of proteolytic cleavage and residual bioactivity. Such activity was assayed by three separate methods: reverse-phase high-performance liquid chromatography (RP-HPLC), flow cytometry, and confocal microscopy. […] The bioactivity of enzymatically digested materials was then assessed in cellular assays by both flow cytometry and confocal microscopy.

[8] = 72 hrs, concentration with respect to peptide

For “KLA(fragment)11 (KLAKLAK; also: ROMP polymer, 11 repeats) [KLA fragment, m ~10]”, the “internalization and localization by live-cell confocal microscopy (in words)” value (HeLa cells [1]) was “a mixture of diffuse and punctate fluorescence”, the “cellular uptake by flow cytometry (in words)” value (“cellular uptake” for short) (HeLa cells [2]) was “ability to enter cells” and the “cytotoxicity (in words)” value (HeLa cells [3]; [8]) was “negligible toxicity”.

In the case of R52-b-OEG20 [R control, m ~60], the “internalization and localization by live-cell confocal microscopy (in words)” value (HeLa cells [1]) is reported as “a mixture of diffuse and punctate fluorescence”.

For KLA6 [KLA full length, m ~5], the LD50 (HeLa cells [3]; [8]) was 12.5 µM.

Work on MT1-MMP (Homo sapiens) yielded a Km [4] of 11 µM and a kcat/Km [4] of 8670 M⁻¹ s⁻¹.

With “KLAKLAKKLAKLAK (KLAKLAKKLAKLAK-NH2; also: fluorescein-lysine, position not given here) [KLA peptide, reference compound]” the “cellular uptake” value (HeLa cells [2]) was “indistinguishable from that of the vehicle control” and the “cytotoxicity (in words)” value (HeLa cells [3]; [8]) was “no cytotoxicity was detected”.

With “K(5/6-Flu)RRRRRRRR-NH2 (K(fluorescein)RRRRRRRR-NH2) [Arg8 peptide, fluorescein-labeled canonical cell penetrating peptide Arg8]” the “effect of pharmacological and thermal inhibition on flow cytometry readings” value (HeLa cells [5]) was “only a small effect”.

In the case of KLA14 [KLA full length, m ~15], the LD50 (HeLa cells [3]; [8]) is reported as 30 µM.

In the case of “Arg8 polymer: fluorescein end-labeled ROMP homopolymer of NorAha-Arg8 monomer, DP 8, deprotected (NorAha-RRRRRRRR-NH2; also: ROMP homopolymer, DP 8, fluorescein end label on polymer)”, the “cellular uptake” value (HeLa cells [6]) is reported as “responses similar to those of the guanidinium polymer”.

For KLA11 [KLA full length, m ~10], the LD50 (HeLa cells [3]; [8]) was 25 µM.

With “GSGSGRR57-b-OEG13 (not fully specified; also: ROMP polymer backbone, 57 repeats of peptide, OEG block, 13 units) [GSGSGRR, m ~60]” the “cellular uptake” value (HeLa cells [2]) was “better intracellular penetration” and the “cytotoxicity (in words)” value (HeLa cells [3]; at concentrations up to 1 mM) was “No cytotoxicity”.

In the case of `N=C(N)NCCC[C@H](NC(=O)[C@H](CCCNC(=N)N)NC(=O)[C@H](CCCNC(=N)N)NC(=O)[C@H](CCC(N)=O)NC(=O)[C@H](CCCNC(=N)N)NC(=O)[C@H](CCCNC(=N)N)NC(=O)[C@H](CCCCN)NC(=O)[C@H](CCCCN)NC(=O)[C@H](CCCNC(=N)N)NC(=O)CNC(=O)[C@H](Cc1ccc(O)cc1)NC(=O)[C@@H](N)CCCCNC(=O)c1ccc2c(c1)C(=O)OC21c2ccc(O)cc2Oc2cc(O)ccc21)C(N)=O` [Tat peptide], the “material remaining, of the starting concentration” value (chymotrypsin) is reported as “less than 10%” and the “proteolysis by RP-HPLC after protease treatment (in words)” value [7] is reported as “complete consumption”.

“GSGSGR71-b-OEG26 (also: ROMP block copolymer, Arg block DP 71, OEG block DP 26) [GSGSGR, m ~60]” was tested, and the “cellular uptake” value (HeLa cells [2]) was “better intracellular penetration”.

For GSGSGKK61-b-OEG30 [GSGSGKK, m ~60], the “cytotoxicity (in words)” value (HeLa cells [3]; at concentrations up to 1 mM) was “No cytotoxicity”.

For GSGSG56-b-OEG28 [GSGSG, m ~60], the “cytotoxicity (in words)” value (HeLa cells [3]; at concentrations up to 1 mM) was “No cytotoxicity”.

Source: patent publication US11938218B2, “High density peptide polymers” (The Regents of the University of California, priority 2014, dated 2024)
